In patent US7601838B2, “2-Alkyl/aryl sulphonyl-1,2,3,4-tetrahydro-9H-pyrido (3,4-b) indole-3-carboxylic acid esters/amides useful as antithrombotic agents” (Council of Scientific and Industrial Research, priority 2004, dated 2009):

Tests used:
[1] = system: collagen and epinephrine induced thrombosis in mice; assay: Effect on mouse thrombosis: collagen and adrenaline induced pulmonary thromboembolism; type: in vivo
Protocol: Pulmonary thromboembolism was induced by following a method of Diminno and Silver^(1). Test compounds (30 μM/Kg) or vehicle were administered orally 60 min prior to the thrombotic challenge. A mixture of collagen (150 μg/ml) and adrenaline (50 μg/mL) was administered by the rapid intravenous injection into the tail vein to induce hind limb paralysis or death. A group of 10 animals were used to evaluate the effect of test compound, while 5 mice were used to assess effect of a standard drug, aspirin and a group of vehicle treated (n=5) mice was also used each experiment.
% Protection was expressed as: […]
Ptest is the number of animals paralyzed/dead in the test compound-treated group, and Pcontrol is the number of animals paralyzed/dead in vehicle treated group.

[2] = system: stasis induced thrombosis in LPS treated rabbits; assay: Rabbit venous thrombosis model (stasis induced thrombosis in LPS treated rabbits); type: in vivo, New Zealand white strain rabbits
Protocol: (§1) [formula] 1.4 Evaluation of coagulation parameters: Blood was collected by cardiac puncture from ether-anaesthetized rat using a syringe containing 3.2% tri-sodium citrate (9:1, v/v). Plasma was obtained by centrifugation of citrated blood at 2500×g for 15 min at 20° C. Stock solutions of the test compounds were prepared freshly in DMSO and were diluted in DMSO. Thrombin time (TT), prothrombin time (PT) and activated partial thromboplastin time (aPTT) were evaluated according to manufacturer's instructions supplied with kits (Stago, France) and measured by Coagulometer (Stago, France)^(4). In each set of experiment effect of DMSO on these parameters was also assessed and was used to calculate change in TT, PT or aPTT. 1.5 Rabbit venous thrombosis model: Experiments were performed on New Zealand white strain rabbits (2-3 kg) either sex. Escherichia coli LPS strain 1055:B5 (Sigma Chemicals, USA) was injected intravenously via ear vein (1 μg/kg)^(5,6). Jugular veins on both sides were exposed and dissected free from surrounding tissue. Two loose surer were placed 1.5 cm apart and all collateral veins were ligated. Four hours after E. coli endotoxin injection (animal is watched for any signs of hypersensitivity reaction during this period), stasis was established and maintained for 45 min by tightening the two sutures. Ligated segments were removed and opened longitudinally and the thrombus was carefully removed and weighed. Heparin sodium (Beparine from beef intestinal mucosa ≧140 USP units/mg; Biological E. Limited, India) was given in doses of (0.5, 0.25, 0.1 mg/kg i.v., via ear vein) 5 min before stasis. 1.6 Effect of compound (i) on human platelet aggregation in vitro: Platelet aggregation study was done on human platelets following isolation of PRP from the human blood as described above (1.3). Aggregation was induced by collagen (10 μg/ml, 5 μg/ml), ADP (10 μM) and thrombin (0.5 U/ml). 2. Results: Effect of test compounds is indicated in the following table (1) against collagen and epinephrine induced thrombosis in mice, which is a primary screening model to detect antithrombotic efficacy of the test agents. At the same dose these compounds were also evaluated for their effect on the bleeding time in mouse (Table 1).
(§2) Effect on venous thrombosis model in rabbit: The selected compounds were evaluated at 10 μM/Kg and 30 μM/kg dose for their efficacy against stasis induced thrombosis in LPS treated rabbits. […] Ex vivo effect of selective compounds on rat platelet aggregation: Blood was collected in sodium citrate to obtain PRP and evaluate the ex vivo effect of selective compounds ((i), (ii), (iii) at 30 μM/kg administered by the ip route) against ADP, collagen, phorbol myristate ester (PMA) calcium ionophore (A23187), or thrombin induced aggregation. It was observed that all these compounds were consistent against collagen-induced platelet aggregation (Table 3). (iii) inhibited ADP (10 μM), collagen (10 μg/ml), PMA (1.5 μM), and thrombin (0.64 U/ml) induced platelet aggregation while no inhibition was found against calcium ionophore A23187 (2.5 μg/ml) induced platelet aggregation. […] Effect on clotting parameters: The selected compounds were also tested in vitro for their effect on thrombin time (TT), prothrombin time (PT) and activated partial thromboplastin time (aPTT) at 100 μg/ml and 200 μg/ml in vitro (Table 4). The test compounds at 100 μg/ml had no significant effect of on these parameters. Some effect was though seen on PT at 200 μg/ml concentration, but the concentration seems to be quite high.
Values are Mean±; Compound (i); n=2, Compound (ii); n=4, Compound (iii), n=4 [n is no. of observations in 2 or more animals at 10 μM/Kg or 30 μM/Kg p.o. administered 2 h prior to the stasis] or vehicle control [n=10 observations in five animals]. In heparin treated group n=6 observations for each dose in nine animals.

[3] = system: rat platelet aggregation; assay: Ex vivo effect on rat platelet aggregation (PRP, aggregometer); type: cell-based, Sprague Dawley rats; conditions: 30 μM/kg ip; for % Aggregation / % Inhibition: rat PRP
Protocol: Sodium citrate: The blood was centrifuged at 275×g for 20 min and the platelet rich plasma (PRP) was collect. The remaining blood was further centrifuged at 1500 g for 15 min at 20° C. to obtain platelet poor plasma (PPP). The platelet count in the PRP was adjusted to 2×10^8 cells/ml by using PPP. Adenosine-5′-diphosphate (ADP), thrombin, collagen, calcium ionophore A23187 or phorbol myristate ester (PMA) induced aggregation was monitored on a dual channel aggregometer (Chrono-log, USA). The test compound was incubated with PRP or 5 min before the addition of aggregation on inducing agent. Percent inhibition of the test compounds at various concentrations was calculated as follows: […]
as §2

[4] = system: thrombin time (TT), prothrombin time (PT) and activated partial thromboplastin time (aPTT); assay: Evaluation of coagulation parameters (TT, PT, aPTT) in rat plasma in vitro; type: biochemical
Protocol: as §1, §2

[5] = 30 μM/kg orally 60 min prior to collagen + adrenaline challenge
[6] = 30 μM/Kg dose p.o. 2 h prior to the stasis

CS(=O)(=O)N1Cc2[nH]c3ccccc3c2CC1C(N)=O (stereo not shown) [t, 2[methanesulfonyl]-1,2,3,4,-tetrahydro-9H-pyrido[3,4-b]indole-3-carboxylic acid amide]
Antithrombotic activity (AT) (% protection) [1, 5]: 30%

COC(=O)C1Cc2c([nH]c3ccccc23)CN1S(=O)(=O)c1ccc(C)cc1 (racemic) [n, 2[4-methylbenzenesulfonyl]-1,2,3,4,-tetrahydro-9H-pyrido[3,4-b]indole-3-carboxylic acid ester]
inhibition of thrombus formation (in words) ([2]; evaluated at 10 μM/Kg and 30 μM/kg dose): inhibited thrombus formations only at 30 μM/Kg

NC(=O)C1Cc2c([nH]c3ccccc23)CN1S(=O)(=O)c1cccc([N+](=O)[O-])c1 (stereo not shown) [u]
Antithrombotic activity (AT) (% protection) [1, 5]: 45%

COC(=O)C1Cc2c([nH]c3ccccc23)CN1S(=O)(=O)c1ccc(OC)cc1 (racemic) [e]
Antithrombotic activity (AT) (% protection) [1, 5]: 0%

COC(=O)C1Cc2c([nH]c3ccccc23)CN1S(=O)(=O)c1cccc2ccccc12 (racemic) [d, 2[1-naphthylsulfonyl]-1,2,3,4,-tetrahydro-9H-pyrido[3,4-b]indole-3-carboxylic acid ester]
Antithrombotic activity (AT) (% protection) [1, 5]: 20%

COC(=O)C1Cc2c([nH]c3ccccc23)CN1S(=O)(=O)c1c(C)cc(C)cc1C (racemic) [b, 2[2,4,6, trimethylbenzenesulfonyl]-1,2,3,4,-tetrahydro-9H-pyrido[3,4-b]indole-3-carboxylic acid ester]
Antithrombotic activity (AT) (% protection) [1, 5]: 20%

COC(=O)C1Cc2c([nH]c3ccccc23)CN1S(=O)(=O)c1ccc(F)cc1 (racemic) [i, 2[4-fluorobenzenesulfonyl]-1,2,3,4,-tetrahydro-9H-pyrido[3,4-b]indole-3-carboxylic acid ester]
Antithrombotic activity (AT) (% protection) [1, 5]: 0%

COC(=O)C1Cc2c([nH]c3ccccc23)CN1S(=O)(=O)c1c(C(C)C)cc(C(C)C)cc1C(C)C (racemic) [h, 2[2,4,6 triisopropylbenzenesulfonyl]-1,2,3,4,-tetrahydro-9H-pyrido[3,4-b]indole-3-carboxylic acid ester]
Antithrombotic activity (AT) (% protection) [1, 5]: 0%

NC(=O)C1Cc2c([nH]c3ccccc23)CN1S(=O)(=O)c1cccc2cccnc12 (stereo not shown) [r, 2[8-quinolinesulfonyl]-1,2,3,4,-tetrahydro-9H-pyrido[3,4-b]indole-3-carboxylic acid amide]
Antithrombotic activity (AT) (% protection) [1, 5]: 30%

NC(=O)C1Cc2c([nH]c3ccccc23)CN1S(=O)(=O)c1cccc2ccccc12 (stereo not shown) [q, 2[-1-naphthylsulfonyl]-1,2,3,4,-tetrahydro-9H-pyrido[3,4-b]indole-3-carboxylic acid amide]
Antithrombotic activity (AT) (% protection) [1, 5]: 20%

COC(=O)C1Cc2c([nH]c3ccccc23)CN1S(C)(=O)=O (racemic) [k, 2[methylsulfonyl]-1,2,3,4,-tetrahydro-9H-pyrido[3,4-b]indole-3-carboxylic acid ester]
Antithrombotic activity (AT) (% protection) [1, 5]: 50%

COC(=O)C1Cc2c([nH]c3ccccc23)CN1S(=O)(=O)c1cccc2cccnc12 (racemic) [f, 2[8-quinolinesulfonyl]-1,2,3,4,-tetrahydro-9H-pyrido[3,4-b]indole-3-carboxylic acid ester]
Antithrombotic activity (AT) (% protection) [1, 5]: 20%

NC(=O)C1Cc2c([nH]c3ccccc23)CN1S(=O)(=O)c1ccc2ccccc2c1 (stereo not shown) [Compound (iii), 2-[2-naphthalenesulfonyl]-1,2,3,4,-tetrahydro-9H-pyrido[3,4-b]indole-3-carboxylic acid amide]
% Aggregation ([3]; A23187 (2.5 μg/ml) induced): 57 ± 6%
% Inhibition ([3]; A23187 (2.5 μg/ml) induced): −25 ± 2%
inhibition of calcium ionophore A23187 induced platelet aggregation (in words) ([3]; A23187 (2.5 μg/ml), rat): no inhibition
% Aggregation ([3]; ADP (10 μM) induced): 2 ± 0.4%
% Inhibition ([3]; ADP (10 μM) induced): 94 ± 0.2%
inhibition of ADP induced platelet aggregation (in words) ([3]; ADP (10 μM), rat): inhibited
% Aggregation ([3]; Collagen (10 μg/ml) induced): 2.5 ± 0%
% Inhibition ([3]; Collagen (10 μg/ml) induced): 47 ± 13%
% Aggregation ([3]; PMA (1.5 μM) induced): 38 ± 13%
% Inhibition ([3]; PMA (1.5 μM) induced): 32 ± 5%
inhibition of PMA induced platelet aggregation (in words) ([3]; PMA (1.5 μM), rat): inhibited
% Aggregation ([3]; Thrombin (0.64 U/ml) induced): 28 ± 3%
% Inhibition ([3]; Thrombin (0.64 U/ml) induced): 40 ± 6%
inhibition of collagen induced platelet aggregation (in words) ([3]; collagen (10 μg/ml), rat): inhibited
inhibition of thrombin induced platelet aggregation (in words) ([3]; thrombin (0.64 U/ml), rat): inhibited
protection against collagen and epinephrine induced thrombosis (in words) ([1]; 30 μM/kg): exhibited significant protection
Antithrombotic activity (AT) (% protection) [1, 5]: 70 ± 0 (n = 3) %
% Reduction (thrombus wt.) [2, 6]: 57%
Thrombus wt. [2, 6]: 11 ± 5
Activated partial thromboplastin time (aPTT) % Change ([4]; 100 μg/ml in vitro): 11 ± 4%
Prothrombin time (PT) % Change ([4]; 100 μg/ml in vitro): −0.24 ± 0.8%
Thrombin time (TT) % Change ([4]; 100 μg/ml in vitro): 10 ± 4%
Activated partial thromboplastin time (aPTT) % Change ([4]; 200 μg/ml in vitro): 10 ± 8%
Prothrombin time (PT) % Change ([4]; 200 μg/ml in vitro): 9 ± 0.2%
Thrombin time (TT) % Change ([4]; 200 μg/ml in vitro): 6 ± 1%

COc1ccc2c(c1)c(CC(=O)O)c(C)n2C(=O)c1ccc(Cl)cc1 [Indomethacin, reference compound]
Antithrombotic activity (AT) (% protection) ([1]; 10 mg/kg (indomethacin)): 55 ± 15 (n = 20) %

Cc1cc(C)c(S(=O)(=O)N2Cc3[nH]c4ccccc4c3CC2C(N)=O)c(C)c1 (stereo not shown) [v]
Antithrombotic activity (AT) (% protection) [1, 5]: 30%

COC(=O)C1Cc2c([nH]c3ccccc23)CN1S(=O)(=O)c1ccccc1[N+](=O)[O-] (racemic) [c, 2[2, nitrobenzenesulfonyl]-1,2,3,4,-tetrahydro-9H-pyrido[3,4-b]indole-3-carboxylic acid ester]
Antithrombotic activity (AT) (% protection) [1, 5]: 0%

COC(=O)C1Cc2c([nH]c3ccccc23)CN1S(=O)(=O)c1cccc2c(N(C)C)cccc12 (racemic) [g, 2-[dansylsulfonyl]-1,2,3,4,-tetrahydro-9H-pyrido[3,4-b]indole-3-carboxylic acid ester]
Antithrombotic activity (AT) (% protection) [1, 5]: 20%

NC(=O)C1Cc2c([nH]c3ccccc23)CN1S(=O)(=O)c1ccc(F)cc1 (stereo not shown) [s, 2[-4-fluorobenzenesulfonyl]-1,2,3,4,-tetrahydro-9H-pyrido[3,4-b]indole-3-carboxylic acid amide]
Antithrombotic activity (AT) (% protection) [1, 5]: 60%

NC(=O)C1Cc2c([nH]c3ccccc23)CN1S(=O)(=O)c1cc(Cl)ccc1Cl (stereo not shown) [o, 2[-2,5-dichlorobenzenesulfonyl]-1,2,3,4,-tetrahydro-9H-pyrido[3,4-b]indole-3-carboxylic acid amide]
Antithrombotic activity (AT) (% protection) [1, 5]: 40%
